Laboratory results reported in patent US11318154B2 (priority 2019, dated 2022).

Legend:
[1] = system: TcdB-induced disruption in colon epithelium; assay: Mice colon ligation loop model with TcdB injection, H&E histological scoring; format: in vivo, C57BL/6 mice; details: intraperitoneal pre-treatment daily for two days, 10 μg TcdB in loop, 8 h
Experimental: The inventors used a mice colon ligation loop model to mimic C. difficile infection as TcdB is released into the lumen of the colon during C. difficile infection. All procedures were performed according to the animal protocol approved by the Cornell University IACUC (2017-0112). 6-8 weeks old of C57BL/6 mice were administrated with glycyrrhizin acid (50 mg/kg) daily via intraperitoneal injection two days before surgery. After overnight fasting, mice were anaesthetized and dissected via a midline laparotomy. A length of about 2 cm colon tissue was ligated and either saline or TcdB was injected into ligated loop for treatment. Mice were sutured and allowed to recover. After 8 hours, mice were euthanized and the ligated colon segments were excised and subjected to H&E staining. HE scoring was blindly assessed by a pathologist.

C. difficile VPI 10463 = assay: C. difficile mice model (spore challenge), survival; format: in vivo; details: C57BL/6 mice, 1×10^5 C. difficile VPI10463 spores by gavage, daily injection
Experimental: To further determine the in vivo protective effect of glycyrrhizin on mice, a C. difficile mice model was established particularly the one as described in Guo, S. et al, (2015), Vaccine 33, 1586-1595. Briefly, C57BL/6 mice were given water mixed with a mixture of kanamycin (Sigma, MO) (0.4×10^−3 mg/L), gentamicin (Sigma, MO) (0.035×10^−3 mg/L), colistin (Sigma, MO) (850 U/mL), metronidazole (Sigma, MO) (0.215×10^−3 mg/L), and vancomycin (Sigma, MO) (0.045×10^−3 mg/L) for 3 days. All mice were then provided with regular autoclaved water for 2 days and administered with a single dose of clindamycin (Sigma, MO) (10 mg/kg) intraperitoneally 1 day before the C. difficile challenge. Mice were injected with glycyrrhizin daily on or before the day of C. difficile VPI 10463 spores challenge. All mice were then challenged with 1×10^5 of prepared C. difficile (strain VPI10463) spores by gavage feeding. The mice were intensively monitored daily after challenge for the presence and severity of diarrhea and other symptoms of illness or mortality. Body weight was measured once a day at the same time each day. Mice judged to be in a moribund state were euthanized by carbon dioxide.

SMILES: CC1(C)[C@@H](O[C@H]2O[C@H](C(=O)O)[C@@H](O)[C@H](O)[C@H]2O[C@@H]2O[C@H](C(=O)O)[C@@H](O)[C@H](O)[C@H]2O)CC[C@]2(C)[C@H]3C(=O)C=C4[C@@H]5C[C@@](C)(C(=O)O)CC[C@]5(C)CC[C@@]4(C)[C@]3(C)CC[C@@H]12 [glycyrrhizin]
- epithelial layer damage of ligated colon tissue (histology) [1]: less epithelial layer damages
- survival at the end of experiment (C. difficile VPI 10463): 100%
